Test results taken from US10022422B2, “Peptidomimetic macrocycles” (priority 2009, dated 2018).
Where a SMILES comes first, the peptide text is derived from it. Bridges are numbered along the chain shown (N, C = ends). [ ]: non-standard residue; d: D form. R8 = C=CCCCCCC[C@@](C)(N)C(=O)O; S5 = C=CCCC[C@](C)(N)C(=O)O; Nle = CCCC[C@H](N)C(=O)O; Aib = CC(C)(N)C(=O)O

assay: Figure 6; design: AUC,all / AUC,inf: concentration or dose not given beside the values
From the text: Table printed on a drawing sheet, Figure 6
First reader's note: The head SP-2 is printed shifted to the left of its column of values.

Row | SMILES | AUC,all [ng·h/mL] | AUC,inf [ng·h/mL] | Cl [mL/min/kg] | Cmax, obs [ng/mL] | MRT [h] | T1/2 [h] | Vss [L/kg]
1 | CCCC[C@H](NC(C)=O)C(=O)N[C@@H](CC(=O)O)C(=O)N[C@H](C(=O)N[C@@H](CC(N)=O)C(=O)NC(C)(C)C(=O)N[C@H](C(=O)N[C@]1(C)CCCCCCC=CCCC[C@@](C)(C(=O)N[C@@H](CCCNC(=N)N)C(N)=O)NC(=O)[C@H](C)NC(=O)[C@H](C(C)C)NC(=O)[C@H](CCCCN)NC(=O)[C@H](CC(C)C)NC(=O)[C@H](Cc2ccccc2)NC(=O)[C@H](CC(C)C)NC1=O)[C@@H](C)O)C(C)C [SP-15, Ac-NlcDVNAibT$r8LFLKVA$R-NH2] (Ac-[Nle]DVN[Aib]T[R8]LFLKVA[S5]R-NH2; staple 7-14) | 23300 | 25410 | 1.97 | 26524 | 1.92 | 1.49 | 0.226

assay: not given

Row | SMILES | AUC,inf [ng·h/mL] | AUC,last [ng·h/mL] | Cl [mL/min/kg] | MRT [h] | T1/2 [h] | Vss [L/kg]
2 | CCCC[C@H](NC(C)=O)C(=O)N[C@@H](CC(=O)O)C(=O)N[C@H](C(=O)N[C@@H](CC(N)=O)C(=O)NC(C)(C)C(=O)N[C@H](C(=O)N[C@@H](CC(C)C)C(=O)N[C@@H](CC(C)C)C(=O)N[C@@H](Cc1ccccc1)C(=O)N[C@@]1(C)CCCC=CCCC[C@@](C)(C(=O)N[C@@H](CCC(N)=O)C(N)=O)NC(=O)[C@H](C)NC(=O)[C@H](C(C)C)NC(=O)[C@H](CCCCN)NC1=O)[C@@H](C)O)C(C)C (single isomer, unassigned) [SP-8 IV Dose] | 46700 | 46600 | 1.05 | 2 | 1 | 0.105
3 | CCCC[C@H](NC(C)=O)C(=O)N[C@@H](CC(=O)O)C(=O)N[C@H](C(=O)N[C@@H](CC(N)=O)C(=O)NC(C)(C)C(=O)N[C@H](C(=O)N[C@@H](CC(C)C)C(=O)N[C@@H](CC(C)C)C(=O)N[C@@H](Cc1ccccc1)C(=O)N[C@@]1(C)CCCC=CCCC[C@@](C)(C(=O)N[C@@H](CCC(N)=O)C(N)=O)NC(=O)[C@H](C)NC(=O)[C@H](C(C)C)NC(=O)[C@H](CCCCN)NC1=O)[C@@H](C)O)C(C)C (single isomer, unassigned) [SP-8 Subcutaneous] | 10200 | 9690 | 4.58 | 13 | 10 | 3.629
